Experiments:
[1] = test system: Glomerella lacenarium (Colletotrichum lacenarium); assay: Fungicidal activity, liquid culture, cucumber preventative (anthracnose); format: cell-based; details: 20 ppm in the applied formulation, liquid culture in PDB, inhibition of growth measured photometrically 3 to 4 days after application, compared to untreated control, read-out: disease control
Experimental: Mycelia fragments or conidia suspensions of a fungus prepared either freshly from liquid cultures of the fungus or from cryogenic storage, are directly mixed into nutrient broth. DMSO solutions of the test compound (max. 10 mg/ml) are diluted with 0.025% Tween20 by a factor of 50 and 10 μl of this solution is pipetted into a microtiter plate (96-well format). The nutrient broth containing the fungal spores/mycelia fragments is then added to give an end concentration of the tested compound. The test plates are incubated in the dark at 24° C. and 96% relative humidity. The inhibition of fungal growth is determined photometrically after 2 to 7 days, depending on the pathosystem, and percent antifungal activity relative to the untreated check is calculated.
Conidia of the fungus from cryogenic storage are directly mixed into nutrient broth (PDB—potato dextrose broth). After placing a (DMSO) solution of test compound into a microtiter plate (96-well format), the nutrient broth containing the fungal spores is added. The test plates are incubated at 24° C. and the inhibition of growth is measured photometrically 3 to 4 days after application.
The following compounds at 20 ppm in the applied formulation give at least 80% disease control in this test when compared to untreated control under the same conditions, which show extensive disease development.

[2] = test system: Puccinia recondita f. Sp. Tritici; assay: Fungicidal activity, wheat leaf disc preventative (brown rust); format: in vivo; details: foliar, 200 ppm in the applied formulation, wheat leaf segments cv. Kanzler, compared to untreated control, 7 to 9 days after application, read-out: disease control
Experimental: Leaf disks or leaf segments of various plant species are cut from plants grown in a greenhouse. The cut leaf disks or segments are placed in multiwell plates (24-well format) onto water agar. The leaf disks are sprayed with a test solution before (preventative) or after (curative) inoculation. Compounds to be tested are prepared as DMSO solutions (max. 10 mg/ml) which are diluted to the appropriate concentration with 0.025% Tween20 just before spraying. The inoculated leaf disks or segments are incubated under defined conditions (temperature, relative humidity, light, etc.) according to the respective test system. A single evaluation of disease level is carried out 3 to 14 days after inoculation, depending on the pathosystem. Percent disease control relative to the untreated check leaf disks or segments is then calculated.
Wheat leaf segments cv. Kanzler were placed on agar in multiwell plates (24-well format) and sprayed with the formulated test compound diluted in water. The leaf disks were inoculated with a spore suspension of the fungus 1 day after application. The inoculated leaf segments were incubated at 19° C. and 75% relative humidity (rh) under a light regime of 12 hours light/12 hours darkness in a climate cabinet and the activity of a compound was assessed as percent disease control compared to untreated when an appropriate level of disease damage appears in untreated check leaf segments (7 to 9 days after application).
The following compounds at 200 ppm in the applied formulation give at least 80% disease control in this test when compared to untreated control leaf disks under the same conditions, which show extensive disease development.

| Structure (SMILES) | inhibition of growth at 20 ppm [1] [%] | pest or weed control at 200 ppm [2] [%] |
| --- | --- | --- |
| CON(Cc1ccc(-c2noc(C(F)(F)F)n2)s1)C(=O)n1ccnc1 [Compound 1.3, N-methoxy-N-[[5-[5-(trifluoromethyl)-1,2,4-oxadiazol-3-yl]-2-thienyl]methyl]imidazole-1-carboxamide] | ≥ 80 | – |
| COC(=O)N(Cc1ccc(-c2noc(C(F)(F)F)n2)s1)OC [Compound 1.5, methyl N-methoxy-N-[[5-[5-(trifluoromethyl)-1,2,4-oxadiazol-3-yl]-2-thienyl]methyl]carbamate] | ≥ 80 | ≥ 80 |
| CON(Cc1ccc(-c2noc(C(F)(F)F)n2)s1)C(=O)c1ccccc1Cl [Compound 1.20, 2-chloro-N-methoxy-N-[[5-[5-(trifluoromethyl)-1,2,4-oxadiazol-3-yl]-2-thienyl]methyl]benzamide] | ≥ 80 | ≥ 80 |
| CON(Cc1ccc(-c2noc(C(F)(F)F)n2)s1)S(C)(=O)=O [Compound 1.31, N-methoxy-N-[[5-[5-(trifluoromethyl)-1,2,4-oxadiazol-3-yl]-2-thienyl]methyl]methanesulfonamide] | ≥ 80 | – |
| CON(Cc1ccc(-c2noc(C(F)(F)F)n2)s1)S(=O)(=O)N1CCCC1 [Compound 1.36, N-methoxy-N-[[5-[5-(trifluoromethyl)-1,2,4-oxadiazol-3-yl]-2-thienyl]methyl]pyrrolidine-1-sulfonamide] | ≥ 80 | – |
| C=CCS(=O)(=O)N(Cc1ccc(-c2noc(C(F)(F)F)n2)s1)OC [Compound 1.38, N-methoxy-N-[[5-[5-(trifluoromethyl)-1,2,4-oxadiazol-3-yl]-2-thienyl]methyl]prop-2-ene-1-sulfonamide] | ≥ 80 | – |
| COC(=O)CCS(=O)(=O)N(Cc1ccc(-c2noc(C(F)(F)F)n2)s1)OC [Compound 1.39, methyl 3-[methoxy-[[5-[5-(trifluoromethyl)-1,2,4-oxadiazol-3-yl]-2-thienyl]methyl]sulfamoyl]propanoate] | ≥ 80 | – |
| COCCS(=O)(=O)N(Cc1ccc(-c2noc(C(F)(F)F)n2)s1)OC [Compound 1.40, N,2-dimethoxy-N-[[5-[5-(trifluoromethyl)-1,2,4-oxadiazol-3-yl]-2-thienyl]methyl]ethanesulfonamide] | ≥ 80 | – |
| CCOC(=O)N(Cc1ccc(-c2noc(C(F)(F)F)n2)s1)C(C)C [Compound 4.12, ethyl N-isopropyl-N-[[5-[5-(trifluoromethyl)-1,2,4-oxadiazol-3-yl]-2-thienyl]methyl]carbamate] | ≥ 80 | – |
| CC(C)C(=O)N(Cc1ccc(-c2noc(C(F)(F)F)n2)s1)OCC(F)F [Compound 4.20, N-(2,2-difluoroethoxy)-2-methyl-N-[[5-[5-(trifluoromethyl)-1,2,4-oxadiazol-3-yl]-2-thienyl]methyl]propanamide] | ≥ 80 | – |
| COC(C)C(=O)N(Cc1ccc(-c2noc(C(F)(F)F)n2)s1)OCC(F)F (stereo not drawn) [Compound 4.21, N-(2,2-difluoroethoxy)-2-methoxy-N-[[5-[5-(trifluoromethyl)-1,2,4-oxadiazol-3-yl]-2-thienyl]methyl]propanamide] | ≥ 80 | – |
| CCN(Cc1ccc(-c2noc(C(F)(F)F)n2)s1)C(=O)c1ccccc1Cl [Compound 5.8, 2-chloro-N-ethyl-N-[[5-[5-(trifluoromethyl)-1,2,4-oxadiazol-3-yl]-2-thienyl]methyl]benzamide] | ≥ 80 | – |
| CC(C)N(Cc1ccc(-c2noc(C(F)(F)F)n2)s1)C(=O)CC1CC1 [Compound 5.27, 2-cyclopropyl-N-isopropyl-N-[[5-[5-(trifluoromethyl)-1,2,4-oxadiazol-3-yl]-2-thienyl]methyl]acetamide] | ≥ 80 | – |
| CC(C)N(Cc1ccc(-c2noc(C(F)(F)F)n2)s1)C(=O)C1(C)CC1 [Compound 5.30, N-isopropyl-1-methyl-N-[[5-[5-(trifluoromethyl)-1,2,4-oxadiazol-3-yl]-2-thienyl]methyl]cyclopropanecarboxamide] | ≥ 80 | – |
| CC1CC1C(=O)N(Cc1ccc(-c2noc(C(F)(F)F)n2)s1)C(C)C (stereo not drawn) [Compound 5.34, N-isopropyl-2-methyl-N-[[5-[5-(trifluoromethyl)-1,2,4-oxadiazol-3-yl]-2-thienyl]methyl]cyclopropanecarboxamide] | ≥ 80 | – |
| O=C(c1ccccc1Cl)N(Cc1ccc(-c2noc(C(F)(F)F)n2)s1)C1CC1 [Compound 5.35, 2-chloro-N-cyclopropyl-N-[[5-[5-(trifluoromethyl)-1,2,4-oxadiazol-3-yl]-2-thienyl]methyl]benzamide] | ≥ 80 | – |
| O=C(c1ccccc1Cl)N(Cc1ccc(-c2noc(C(F)(F)F)n2)s1)OCC(F)F [Compound 5.44, 2-chloro-N-(2,2-difluoroethoxy)-N-[[5-(5-(trifluoromethyl)-1,2,4-oxadiazol-3-yl]-2-thienyl]methyl]benzamide] | ≥ 80 | – |
| CC1(C(=O)N(Cc2ccc(-c3noc(C(F)(F)F)n3)s2)OCC(F)F)CC1 [Compound 5.48, N-(2,2-difluoroethoxy)-1-methyl-N-[[5-[5-(trifluoromethyl)-1,2,4-oxadiazol-3-yl]-2-thienyl]methyl]cyclopropanecarboxamide] | ≥ 80 | – |
| CC(C)N(Cc1ccc(-c2noc(C(F)(F)F)n2)s1)C(=O)N1CCCO1 [Compound 5.58, N-isopropyl-N-[[5-[5-(trifluoromethyl)-1,2,4-oxadiazol-3-yl]-2-thienyl]methyl]isoxazolidine-2-carboxamide] | ≥ 80 | – |
| CC(C)N(Cc1ccc(-c2noc(C(F)(F)F)n2)s1)S(=O)(=O)N(C)C [Compound 6.4, N-(dimethylsulfamoyl)-N-[[5-[5-(trifluoromethyl)-1,2,4-oxadiazol-3-yl]-2-thienyl]methyl]propan-2-amine] | ≥ 80 | – |
| CCN(Cc1ccc(-c2noc(C(F)(F)F)n2)s1)S(=O)(=O)c1ccccc1 [Compound 6.15, N-ethyl-N-[[5-[5-(trifluoromethyl)-1,2,4-oxadiazol-3-yl]-2-thienyl]methyl]benzenesulfonamide] | ≥ 80 | – |
| CC(C)S(=O)(=O)N(C)Cc1ccc(-c2noc(C(F)(F)F)n2)s1 [Compound 6.23, N-methyl-N-[[5-[5-(trifluoromethyl)-1,2,4-oxadiazol-3-yl]-2-thienyl]methyl]propane-2-sulfonamide] | ≥ 80 | – |
| CCCCS(=O)(=O)N(C)Cc1ccc(-c2noc(C(F)(F)F)n2)s1 [Compound 6.24, N-methyl-N-[[5-[5-(trifluoromethyl)-1,2,4-oxadiazol-3-yl]-2-thienyl]methyl]butane-1-sulfonamide] | – | ≥ 80 |
| CN(Cc1ccc(-c2noc(C(F)(F)F)n2)s1)S(=O)(=O)c1ccccc1 [Compound 6.26, N-methyl-N-[[5-[5-(trifluoromethyl)-1,2,4-oxadiazol-3-yl]-2-thienyl]methyl]benzenesulfonamide] | – | ≥ 80 |
| CCCCS(=O)(=O)N(Cc1ccc(-c2noc(C(F)(F)F)n2)s1)C1CC1 [Compound 6.34, N-cyclopropyl-N-[[5-[5-(trifluoromethyl)-1,2,4-oxadiazol-3-yl]-2-thienyl]methyl]butane-1-sulfonamide] | ≥ 80 | – |
| O=S(=O)(c1ccccc1)N(Cc1ccc(-c2noc(C(F)(F)F)n2)s1)C1CC1 [Compound 6.36, N-cyclopropyl-N-[[5-[5-(trifluoromethyl)-1,2,4-oxadiazol-3-yl]-2-thienyl]methyl]benzenesulfonamide] | – | ≥ 80 |
| CCN(Cc1ccc(-c2noc(C(F)(F)F)n2)s1)C(=O)C(=O)C(C)(C)C [Compound 6.41, N-ethyl-3,3-dimethyl-2-oxo-N-[[5-[5-(trifluoromethyl)-1,2,4-oxadiazol-3-yl]-2-thienyl]methyl]butanamide] | ≥ 80 | – |
| CN(C)C(=O)C(=O)N(Cc1ccc(-c2noc(C(F)(F)F)n2)s1)OCC(F)F [Compound 6.65, N′-(2,2-difluoroethoxy)-N,N-dimethyl-N′-[[5-[5-(trifluoromethyl)-1,2,4-oxadiazol-3-yl]-2-thienyl]methyl]oxamide] | ≥ 80 | – |
